Experimental data as given in ChEMBL document CHEMBL4699579, “A Peptidyl Inhibitor that Blocks Calcineurin-NFAT Interaction and Prevents Acute Lung Injury” (J Med Chem, 2020).
Calls of active or inactive are those of the source. The calls are words filed in the database; no cut-off is given here. Positions of bridges follow the written chain, without caps; N, C: chain ends. Non-standard residues stand in square brackets, D forms with d. Residues, ends and D or L forms follow the SMILES beside them. Chains are numbered I, II in the order given. *: point of attachment. 2Nal = N[C@@H](Cc1ccc2ccccc2c1)C(=O)O; Val(3-OH) = CC(C)(O)[C@H](N)C(=O)O; Tle = CC(C)(C)[C@H](N)C(=O)O; X1 = O=C(c1ccnc(Cl)c1Cl)*; AEEA = NCCOCCOCC(=O)O

Columns and labels:
[1] = Stability in 25% human serum assessed as compound degradation at 5 uM at 37 degC incubated for 24 hrs by HPLC analysis; assay type: ADME, cell-free; details: serum, 24 h, 5 µM
Macrophage [2] = assay: Inhibition of calcineurin-NFATc3 interaction in mouse lung macrophages assessed as reduction in LPS-induced IL6 production at 0.1 to 10 uM pre-incubated 4 hrs before LPS stimulation for 8 hrs by ELISA; assay type: tissue-based; details: DISRUPTING AGENT, dose microM 0.1-10, time 12.0 hrs
[3] = Clearance in C57BL/6 mouse assessed as clearance time at 5 mg/kg using TMR-labeled compound instilled into both nostrils by flow cytometry; assay type: ADME, organism-based; details: in vivo, inhaled_or_intranasal
[4] = Toxicity in mouse lung macrophages cells assessed as reduction in cell viability up to 25 uM incubated for 72 hrs by MTT assay; assay type: tissue-based; details: macrophage
Macrophage [5] = assay: Inhibition of calcineurin-NFATc3 interaction in mouse lung macrophages assessed as reduction in LPS-induced IL6 production at 1 uM pre-incubated 4 hrs before LPS stimulation for 8 hrs by ELISA relative to 10 uM CsA; assay type: tissue-based; details: time 12.0 hrs
[6] = Stability in simulated gastric fluid at 5 uM incubated for 2 hrs by LC/MS/MS analysis
[7] = Stability in simulated intestinal fluid at 5 uM incubated for 2 hrs by LC/MS/MS analysis
[8] = Drug uptake in human HCT-116 cells spheroids at 5 uM incubated for 4 to 24 hrs by MALDI-TOF-TOF mass spectrometry; assay type: ADME, cell-based; details: hct-116, 5 µM, TDE = time-dependent effect, time 4-24 hrs
[9] = Plasma concentration in BALB/c mouse at 5 mg/kg, iv after 2 to 4 hrs by LC-MS/MS analysis; assay type: ADME, organism-based; details: in vivo, time 2-4 hrs
[10] = Plasma concentration in BALB/c mouse at 5 mg/kg, iv after 8 hrs by LC-MS/MS analysis; assay type: ADME, organism-based
[11] = Drug concentration in BALB/c mouse muscle at 5 mg/kg, iv after 8 hrs by LC-MS/MS analysis; assay type: ADME, organism-based, Muscle tissue; details: in vivo
[12] = Drug concentration in BALB/c mouse brain at 5 mg/kg, iv after 8 hrs by LC-MS/MS analysis; assay type: ADME, organism-based; details: in vivo
[13] = Drug metabolism in BALB/c mouse plasma at 5 mg/kg, iv after 8 hrs by LC-MS/MS analysis; assay type: ADME, organism-based; details: in vivo
[14] = Drug metabolism in BALB/c mouse kidney at 5 mg/kg, iv after 8 hrs by LC-MS/MS analysis; assay type: ADME, organism-based; details: in vivo
[15] = Drug metabolism in BALB/c mouse spleen at 5 mg/kg, iv after 8 hrs by LC-MS/MS analysis; assay type: ADME, organism-based; details: in vivo
[16] = Drug distribution in BALB/c mouse kidney at 0.6 mg/kg, iv using compound labelled with cyanine-5 measured after 24 hrs by fluorescence based assay; assay type: ADME, organism-based; details: in vivo
[17] = Drug distribution in BALB/c mouse heart at 0.6 mg/kg, iv using compound labelled with cyanine-5 measured after 24 hrs by fluorescence based assay; assay type: ADME, organism-based; details: read-out: Drug uptake
[18] = Drug distribution in BALB/c mouse neutrophils at 0.6 mg/kg, iv using compound labelled with cyanine-5 measured after 24 hrs by flow cytometry; assay type: ADME, organism-based, Neutrophil; details: in vivo
[19] = Drug distribution in BALB/c mouse kidney at […], ip using compound labelled with cyanine-5 measured after 24 hrs by fluorescence based assay; assay type: ADME, organism-based; details: in vivo, dose 2.4 mg/kg
[20] = Drug distribution in BALB/c mouse lung at […], ip using compound labelled with cyanine-5 measured after 24 hrs by fluorescence based assay; assay type: ADME, organism-based; details: dose 2.4 mg/kg, read-out: Drug uptake
[21] = Drug distribution in BALB/c mouse heart at […], ip using compound labelled with cyanine-5 measured after 24 hrs by fluorescence based assay; assay type: ADME, organism-based; details: dose 2.4 mg/kg, read-out: Drug uptake
[22] = Drug distribution in BALB/c mouse muscle at […], ip using compound labelled with cyanine-5 measured after 24 hrs by fluorescence based assay; assay type: ADME, organism-based, Muscle tissue; details: in vivo, dose 2.4 mg/kg
[23] = Drug distribution in BALB/c mouse monocytes at […], ip using compound labelled with cyanine-5 measured after 24 hrs by flow cytometry; assay type: ADME, organism-based, Monocyte; details: in vivo, dose 2.4 mg/kg
[24] = Drug distribution in BALB/c mouse liver at […], sc using compound labelled with cyanine-5 measured after 24 hrs by fluorescence based assay; assay type: ADME, organism-based; details: in vivo, dose 2.4 mg/kg
[25] = Drug distribution in BALB/c mouse spleen at […], sc using compound labelled with cyanine-5 measured after 24 hrs by fluorescence based assay; assay type: ADME, organism-based; details: in vivo, dose 2.4 mg/kg
[26] = Drug distribution in BALB/c mouse lung at […], sc using compound labelled with cyanine-5 measured after 24 hrs by fluorescence based assay; assay type: ADME, organism-based; details: dose 2.4 mg/kg, read-out: Drug uptake
[27] = Drug distribution in BALB/c mouse heart at […], sc using compound labelled with cyanine-5 measured after 24 hrs by fluorescence based assay; assay type: ADME, organism-based; details: dose 2.4 mg/kg, read-out: Drug uptake
[28] = Drug distribution in BALB/c mouse neutrophils at […], sc using compound labelled with cyanine-5 measured after 24 hrs by flow cytometry; assay type: ADME, organism-based, Neutrophil; details: in vivo, dose 2.4 mg/kg
[29] = Drug distribution in BALB/c mouse Non-T and B lymphocytes at […], sc using compound labelled with cyanine-5 measured after 24 hrs by flow cytometry; assay type: ADME, organism-based, Lymphocyte; details: in vivo, dose 2.4 mg/kg
Mus musculus [30] = assay: Anti-inflammatory activity in BALB/c mouse model of LPS-induced ALI assessed as reduction in LPS-induced IL6 in BALF at 5 mg/kg, iv pre-treated 4 hrs before LPS stimulation for 16 hrs; assay type: functional, organism-based; details: time 20.0 hrs
Mus musculus [31] = assay: Anti-inflammatory activity in BALB/c mouse model of LPS-induced ALI assessed as reduction in LPS-induced lung wet-to-dry ratios at 3 mg/kg dosed via intranasal instillation pre-treated 2 hrs before LPS stimulation for 6 hrs and measured at 24 hrs; assay type: functional, organism-based
Mus musculus [32] = assay: Anti-inflammatory activity in BALB/c mouse model of LPS-induced ALI assessed as reduction in LPS-induced BALF protein levels at 3 mg/kg dosed via intranasal instillation pre-treated 2 hrs before LPS stimulation for 6 hrs and measured at 24 hrs; assay type: functional, organism-based
Mus musculus [33] = assay: Anti-inflammatory activity in BALB/c mouse model of LPS-induced ALI assessed as reduction in LPS-induced lung wet-to-dry ratios at 3 mg/kg dosed via intranasal instillation pre-treated 2 hrs before LPS stimulation for 6 hrs; assay type: functional, organism-based; details: time 8.0 hrs
Mus musculus [34] = assay: Anti-inflammatory activity in BALB/c mouse model of LPS-induced ALI assessed as reduction in LPS-induced BALF protein levels at 0.3 to 3 mg/kg dosed via intranasal instillation pre-treated 2 hrs before LPS stimulation for 6 hrs; assay type: functional
Mus musculus [35] = assay: Anti-inflammatory activity in BALB/c mouse model of LPS-induced ALI assessed as reduction in LPS-induced IL6 level in BALF at 0.3 to 3 mg/kg dosed via intranasal instillation pre-treated 2 hrs before LPS stimulation for 6 hrs; assay type: functional
Mus musculus [36] = assay: Anti-inflammatory activity in BALB/c mouse model of LPS-induced ALI assessed as reduction in LPS-induced TNFalpha in BALF at 0.3 to 3 mg/kg dosed via intranasal instillation pre-treated 2 hrs before LPS stimulation for 6 hrs; assay type: functional
[37] = dose mg/kg 0.3-3, time 8 hrs, read-out: MED

In the case of `CC[C@H](C)[C@H](NC(=O)[C@@H](NC(=O)c1ccnc(Cl)c1Cl)C(C)(C)C)C(=O)N[C@H](C(=O)N[C@H](C(=O)N[C@H](C(=O)N[C@@H](CCC(N)=O)C(=O)N[C@@H](Cc1c[nH]cn1)C(=O)N[C@H](CC(C)C)C(=O)N[C@@H](CO)C(=O)NCCOCCOCC(=O)N[C@@H](CCCCNC(=O)CC[C@@H]1NC(=O)[C@@H](CCCNC(=N)N)NC(=O)[C@H](CCCNC(=N)N)NC(=O)[C@@H](CCCNC(=N)N)NC(=O)[C@H](CCCNC(=N)N)NC(=O)[C@H](Cc2ccc3ccccc3c2)NC(=O)[C@@H](Cc2ccccc2)NC1=O)C(N)=O)[C@@H](C)O)[C@@H](C)CC)C(C)(C)O` (I: X1-[Tle]I[Val(3-OH)]ITQH[dL]S[AEEA]K-NH2 / II: cyclo([2Nal]R[dR]R[dR]E[dF]); amide I:11-II:6), the Stabilty [1] is reported as “Stable”, the inhibition (Macrophage [2]) is reported as “Dose-dependent effect” and the CL [3] is reported as 16 h. For the same compound, the Activity [4] was “Non-Toxic”, the fold change (FC) (Macrophage [5]) was 10 and the Stability [6] was “Stable”. The Stability [7] was “Stable”, the Drug uptake [8] was “Tde” and the concentration [9] was under 5 nM. For the same compound, the concentration at 8 h [10] was 13.5 nM, the Drug uptake [11] was “Not Active” and the Drug uptake [12] was “Not Active”. For the same compound, the Drug metabolism [13] was “Metabolite_Detected”, the Drug metabolism [14] was “Metabolite_Detected” and the Drug metabolism [15] was “Metabolite_Detected”. The Drug uptake [16] was “Active”, the concentration at 24 h [17] was over 50 nM and the Drug uptake [18] was “Active”. For the same compound, the Drug uptake [19] was “Active”, the concentration at 24 h [20] was over 50 nM and the concentration at 24 h [21] was over 50 nM. The Drug uptake [22] was “Not Active”, the Drug uptake [23] was “Active” and the Drug uptake [24] was “Active”. The Drug uptake [25] was “Active”, the concentration at 24 h [26] was over 50 nM and the concentration at 24 h [27] was over 50 nM. For the same compound, the Drug uptake [28] was “Active”, the Drug uptake [29] was “Active” and the Activity (Mus musculus [30]) was “Active”. The Activity (Mus musculus [31]) was “inactive”, the Activity (Mus musculus [32]) was “inactive” and the Activity (Mus musculus [33]) was “Active”. The Activity (Mus musculus [34]; dose mg/kg 0.3-3, time 8.0 hrs) was “Dose-dependent effect”, the minimal effective dose (Mus musculus [34]; [37]) was 1 mg/kg and the Activity (Mus musculus [35]; dose mg/kg 0.3-3, time 8.0 hrs) was “Dose-dependent effect”. The minimal effective dose (Mus musculus [35]; [37]) was 1 mg/kg, the Activity (Mus musculus [36]; dose mg/kg 0.3-3, time 8.0 hrs) was “Dose-dependent effect” and the minimal effective dose (Mus musculus [36]; [37]) was 1 mg/kg.
